Assay results: patent US10675321B2, “Botanical extracts and compounds from Castanea plants and methods of use” (priority 2015, dated 2020)
Converted amounts (≈) assume the structure as drawn.

What was measured:
Format in all cases: cell-based
[1] = test system: Staphylococcus aureus AH430; assay: MIC by microtiter broth dilution, strain AH430; conditions: 18 hrs static; for MIC50: at least 50% inhibition of growth by OD; for MIC90: at least 90% inhibition of growth by OD
[2] = test system: Staphylococcus aureus AH1872; assay: microbe, parasite or virus in culture; conditions: AH1872, 18 h
[3] = test system: Propionibacterium acnes HL005PA2; assay: Growth inhibition (MIC) of Propionibacterium acnes HL005PA2; conditions: Cutibacterium acnes, P. acnes HL005PA2
[4] = test system: Propionibacterium acnes ATCC6919; assay: Growth inhibition (MIC) of Propionibacterium acnes ATCC6919; conditions: Cutibacterium acnes
[5] = test system: Staphylococcus aureus AH1747; assay: MIC by microtiter broth dilution, strain AH1747; conditions: 18 hrs static
[6] = test system: Staphylococcus aureus UAMS-1; assay: MIC by microtiter broth dilution, strain UAMS-1; conditions: 18 hrs static

Row | Compound | MIC50 [1] [µg/mL] | MIC90 [1] [µg/mL] | MIC50 [2] [µg/mL] | MIC90 [2] [µg/mL] | MIC50 ([3]; 50% inhibition of the growth control) [µg/mL] | MIC90 ([3]; 90% inhibition) [µg/mL] | MIC50 [4] [µg/mL] | MIC90 [4] [µg/mL] | MIC50 ([5]; 50% inhibition of growth) [µg/mL] | MIC90 ([5]; 90% inhibition of growth) [µg/mL] | MIC50 ([6]; UAMS1, 50% inhibition of growth) [µg/mL] | MIC90 ([6]; UAMS1, 90% inhibition of growth) [µg/mL]
1 | CC1(C)S[C@@H]2[C@H](NC(=O)[C@H](N)c3ccccc3)C(=O)N2[C@H]1C(=O)O [Amp, Ampicillin] | 0.0625 (≈ 0.179 µM) | 0.125 (≈ 0.358 µM) | 4 (≈ 11.4 µM) | 8 (≈ 22.9 µM) |  |  |  |  |  |  |  | 
2 | CCC[C@@H]1C[C@@H](C(=O)N[C@@H]([C@H]2O[C@H](SC)[C@H](O)[C@@H](O)[C@H]2O)[C@H](C)Cl)N(C)C1 [Clin, clindamycin] |  |  |  |  | 0.0625 (≈ 0.147 µM) | 0.25 (≈ 0.588 µM) | 0.125 (≈ 0.294 µM) | 0.125 (≈ 0.294 µM) |  |  |  | 
3 | NC[C@H]1O[C@H](O[C@H]2[C@H](O)[C@@H](O[C@H]3O[C@H](CO)[C@@H](O)[C@H](N)[C@H]3O)[C@H](N)C[C@@H]2N)[C@H](O)[C@@H](O)[C@@H]1O [Kan, Kanamycin] | 2 (≈ 4.13 µM) | 4 (≈ 8.26 µM) | 1 (≈ 2.06 µM) | 4 (≈ 8.26 µM) |  |  |  |  | 1 (≈ 2.06 µM) | 2 (≈ 4.13 µM) | 2 (≈ 4.13 µM) | 4 (≈ 8.26 µM)
